The record followed here is patent publication US20250144069A1, “BILOBALIDE DERIVATIVE COMPOUNDS FOR TREATING NEUROLOGICAL DISEASES AND CANCERS” (The Chinese University of Hong Kong, priority 2023, published 2025).

Holding throughout (type): cell-based, human
One data set relates to A549 cells. The experiment in a line: Single-dose CCK-8 cell viability screening (adherent cells). The following applies: for viability at 50 µM: Homo sapiens, A549, 48 h, read-out: % Viability (50 uM, 48 h) A549. As for the experimental part: (§1) In this example, the anti-cancer properties of the BB analogues described in Table 1d were evaluated. Single-dose screening approach is used for initial testing to assess the cytotoxic effect of the BB analogues (also referred to as ‘BB compounds’) on Jurkat cells (human T cell leukaemia cells) and A549 cells (human lung cancer cells).
(§2) Method for Adherent Cells (A549 Cells)
(§3) In this example, 5000 cells/100 uL were seeded in 96-well plates and incubate at 37° C.+5% CO2 overnight. Media were replaced with 100 uL of 50 uM compound per well in 6 replicates. The following controls were prepared.
(§4) Blank control: 100 uL 0.1% DMSO in media with no cells per well.
(§5) Positive control: 100 uL of 10 uM 5-flurouracil per well.
(§6) Negative control: 100 uL of 0.1% DMSO in media per well.
(§7) Each 96-well plate included 7 compounds and the complete set of controls (in 6 replicates).
(§8) Cells were incubated at 37° C.+5% CO2 for 46 hours. 10 uL of CCK8 solution was added to each well. Cells were then incubated at 37° C.+5% CO2 for 2 hours. Absorbance at 450 nm was measured using a multiplate reader.
(§9) Viability was calculated using the equation: […]
(§10) The benchmark in Table 2 was used to define the activities of each compound.

Assay in data set [1]: as above
The note with it: average of A549 and Jurkat % viability, 50 uM, 48 h; for viability at 50 µM: Homo sapiens. As for the experimental part: as §1, §2, §3, §4, §5, §6, §7, §8, §9, §10

The test system of a further data set is Jurkat cells. Description: Single-dose CCK-8 cell viability screening (suspension cells). The note with it: for viability at 50 µM: Homo sapiens, Jurkat, 48 h. The method, then:
as §1
Method for Suspension Cells (Jurkat Cells)
5000 cells/90 uL were seeded in 96-well plates. 10 uL of 500 uM compound (10×) was added to each well in 6 replicates. The following controls were prepared.
Blank control: 10 uL 1% DMSO in media with no cells per well.
Positive control: 10 uL of 100 uM 5-flurouracil (10×) per well.
Negative control: 10 uL of 1% DMSO in media (10×) per well.
Each 96-well plate included 7 BB analogues and the complete set of controls (in 6 replicates).
as §8, §9, §10

Setting [2] is: Jurkat cells, 50 uM, CCK-8, read-out: % Viability (50 uM, 48 h) Jurkat.
[3] abbreviates: read-out: % Viability (50 uM, 48 h) Jurkat.

Read-outs that look alike come from different tables or passages of the source.

Take `CC(=O)O[C@H]1C(=O)NC(N)=N[C@H]2OC(=O)[C@]34CC(=O)O[C@H]3C=C(C(C)(C)C)[C@@]214` [XBB-073]: the viability (commonly a read-out of living cells in per cent, often relative to untreated cells) at 50 µM turned out to be 66.5% in the data set on A549 cells (A549 cells, 50 uM, 48 h, CCK-8); 86.5% in data set [1] (A549, 48 h); 107% in the data set with Jurkat cells (setting [2]).

Turning to `CC(C)(C)[C@]1(O)C[C@@H]2OC(=O)C[C@@]23C(=O)O[C@@H]2N(C4COC4)C(=O)[C@H](OC(=O)c4ccccc4)[C@]213` [DW182, (3aS,5aS,8R,8aS,9R,10aS)-9-(tert-butyl)-9-hydroxy-6-(oxetan-3-yl)-2,4,7-trioxooctahydro-4H,9H-furo [3″,2″:2′,3′]cyclopenta [1′,2′:3,4]furo [2,3-b]pyrrol-8-yl benzoate], the viability at 50 µM in the data set on A549 cells (A549 cells, 50 uM, 48 h, CCK-8) came to 114%; in data set [1] (A549, 48 h), 107%; in the data set with Jurkat cells (setting [2]) it was 101%.

`CC(C)(C)[C@]1(O)C[C@@H]2OC(=O)C[C@@]23C(=O)O[C@@H]2NC(=O)[C@H](OC(=O)c4ccccc4)[C@]213` [XBB-004, (3aS,5aS,8R,8aS,9R,10aS)-9-(tert-butyl)-9-hydroxy-2,4,7-trioxooctahydro-4H,9H-furo[3″,2″:2′,3′]cyclopenta[1′,2′:3,4]furo[2,3-b]pyrrol-8-yl benzoate]: the viability at 50 µM in the data set with A549 cells was determined as 98.5%; in data set [1], 96.7%; in the data set on Jurkat cells (setting [3]) it was 95%.

Turning to `CC(C)(C)OC(=O)N1CCC(CCCN2C(=O)[C@H](OC(=O)c3ccccc3)[C@@]34[C@@H]2OC(=O)[C@@]32CC(=O)O[C@H]2C[C@@]4(O)C(C)(C)C)CC1` [XBB-025], the viability at 50 µM came to 100% in the data set with A549 cells (A549 cells, 50 uM, 48 h, CCK-8); 91.7% in data set [1] (A549, 48 h); 83.3% with Jurkat cells (setting [2]).

For `CC(C)(C)[C@]1(O)C[C@@H]2OC(=O)C[C@@]23C(=O)O[C@@H]2N(c4ccc(N)cc4)C(=O)[C@H](OC(=O)c4ccccc4)[C@]213` [XBB-037′], the “% Viability (50 uM, 48 h) A549” value in the data set on A549 cells (A549 cells, 50 uM, 48 h, CCK-8) was 110.02%. Also, the “Average (%)” value in data set [1] stood at 104.22%. Further, the “% Viability (50 uM, 48 h) Jurkat” value in the data set on Jurkat cells (Jurkat cells, 50 uM, CCK-8, 50 µM) was 98.42%.

In the case of `CC(C)(C)[C@]1(O)C[C@@H]2OC(=O)C[C@@]23C(=O)O[C@@H]2N(Cc4ccccc4)C(=O)[C@H](OC(=O)c4ccccc4)[C@]213` [XBB-016], the viability at 50 µM in the data set with A549 cells (A549 cells, 50 uM, 48 h, CCK-8) came to 105%; in data set [1] (A549, 48 h), 106%; with Jurkat cells (setting [2]), 107%.

For the compound `C=C(C)[C@@]1(C)C[C@@H]2OC(=O)C[C@@]23C(=O)O[C@@H]2NC(=O)[C@H](O)[C@]213` [XBB-013], the viability at 50 µM in the data set on A549 cells is 100%; in data set [1], 104%; in the data set with Jurkat cells (setting [3]), 107%.

Take `Cc1cccc(N2C(=O)[C@H](OC(=O)c3ccccc3)[C@@]34[C@@H]2OC(=O)[C@@]32CC(=O)O[C@H]2C[C@@]4(O)C(C)(C)C)c1` [P-33, (3aS,5aS,8R,9R,10aS)-9-(tert-butyl)-9-hydroxy-2,4,7-trioxo-6-(3-methylphenyl)octahydro-4H,9H-furo [3″,2″:2′,3′]cyclopenta [1′,2′:3,4]furo [2,3-b]pyrrol-8-yl benzoate]: the viability at 50 µM with A549 cells (A549 cells, 50 uM, 48 h, CCK-8) turned out to be 61.1%; in data set [1] (A549, 48 h), 63.5%; in the data set on Jurkat cells (setting [2]) it was 66%.

For `COc1ccccc1N1C(=O)[C@H](OC(=O)c2ccccc2)[C@@]23[C@@H]1OC(=O)[C@@]21CC(=O)O[C@H]1C[C@@]3(O)C(C)(C)C` [JW095, (3aS,5aS,8R,9R,10aS)-9-(tert-butyl)-9-hydroxy-6-(2-methoxyphenyl)-2,4,7-trioxodecahydrofuro [3″,2″:2′,3′]cyclopenta [1′,2′:3,4]furo [2,3-b]pyrrol-8-yl benzoate], the viability at 50 µM in the data set on A549 cells (A549 cells, 50 uM, 48 h, CCK-8) amounted to 87.2%; in data set [1] (A549, 48 h), 78.1%; with Jurkat cells (setting [2]), 69%.

`CC(C)(C)[C@]1(O)C[C@@H]2OC(=O)C[C@@]23C(=O)O[C@@H]2N(c4ccc5ccccc5c4)C(=O)[C@H](OC(=O)c4ccccc4)[C@]213` [JW094, (3aS,5aS,8R,9R,10aS)-9-(tert-butyl)-9-hydroxy-6-(naphthalen-2-yl)-2,4,7-trioxodecahydrofuro [3″,2″:2′,3′]cyclopenta [1′,2′:3,4]furo [2,3-b]pyrrol-8-yl benzoate]: the viability at 50 µM in the data set on A549 cells (A549 cells, 50 uM, 48 h, CCK-8) amounted to 76.5%; in data set [1] (A549, 48 h), 76.7%; in the data set with Jurkat cells (setting [2]) it was 76.9%.

As for `CC(C)(C)OC(=O)N1CCC(CCN2C(=O)[C@H](OC(=O)c3ccccc3)[C@@]34[C@@H]2OC(=O)[C@@]32CC(=O)O[C@H]2C[C@@]4(O)C(C)(C)C)CC1` [XBB-023, tert-butyl 4-(2-((3aS,5aS,8R,8aS,9R,10aS)-8-(benzoyloxy)-9-(tert-butyl)-9-hydroxy-2,4,7-trioxohexahydro-4H,9H-furo[3″,2″:2′,3′]cyclopenta[1′,2′:3,4]furo[2,3-b]pyrrol-6(5aH)-yl)ethyl)piperidine-1-carboxylate], the viability at 50 µM in the data set on A549 cells (A549 cells, 50 uM, 48 h, CCK-8) was determined as 72.1%; in data set [1] (A549, 48 h), 71.7%; in the data set with Jurkat cells (setting [2]), 71.3%.

`CC(=O)O[C@H]1C(=O)N(CC2CCN(C(=O)OC(C)(C)C)CC2)[C@H]2OC(=O)[C@]34CC(=O)O[C@H]3C=C(C(C)(C)C)[C@@]214` [XBB-060]: the viability at 50 µM was determined as 108% with A549 cells (A549 cells, 50 uM, 48 h, CCK-8); 106% in data set [1] (A549, 48 h); 104% in the data set with Jurkat cells (setting [2]).

Turning to `CC(C)(C)[C@]1(O)C[C@@H]2OC(=O)C[C@@]23C(=O)O[C@@H]2N(c4cc(F)cc(F)c4)C(=O)[C@H](OC(=O)c4ccccc4)[C@]213` [P-19, (3aS,5aS,8R,8aS,9R,10aS)-9-(tert-butyl)-9-hydroxy-2,4,7-trioxo-6-(3,5-difluoro-phenyl)octahydro-4H,9H-furo [3″,2″:2′,3′]cyclopenta [1′,2′:3,4]furo [2,3-b]pyrrol-8-yl benzoate], the viability at 50 µM in the data set on A549 cells (A549 cells, 50 uM, 48 h, CCK-8) amounted to 50.2%; in data set [1] (A549, 48 h), 60.2%; in the data set on Jurkat cells (setting [2]) it was 70.2%.

As to `Cc1c(CCN2C(=O)[C@H](OC(=O)c3ccccc3)[C@@]34[C@@H]2OC(=O)[C@@]32CC(=O)O[C@H]2C[C@@]4(O)C(C)(C)C)[nH]c2ccccc12` [XBB-029, (3aS,5aS,8R,8aS,9R,10aS)-9-(tert-butyl)-9-hydroxy-6-(2-(3-methyl-1H-indol-2-yl)ethyl)-2,4,7-trioxooctahydro-4H,9H-furo [3″,2″:2′,3′]cyclopenta[1′,2′:3,4]furo[2,3-b]pyrrol-8-yl benzoate], the viability at 50 µM is 96.1% with A549 cells (A549 cells, 50 uM, 48 h, CCK-8); 94.8% in data set [1] (A549, 48 h); 93.4% with Jurkat cells (setting [2]).

For `CC(C)(C)[C@]1(O)C[C@@H]2OC(=O)C[C@@]23C(=O)O[C@@H]2N(CC4CC4)C(=O)[C@H](OC(=O)c4ccccc4)[C@]213` [DW189, (3aS,5aS,8R,8aS,9R,10aS)-9-(tert-butyl)-6-(cyclopropylmethyl)-9-hydroxy-2,4,7-trioxooctahydro-4H,9H-furo [3″,2″:2′,3′]cyclopenta [1′,2′:3,4]furo[2,3-b]pyrrol-8-yl benzoate], the viability at 50 µM in the data set on A549 cells (A549 cells, 50 uM, 48 h, CCK-8) came to 107%; in data set [1] (A549, 48 h), 101%; in the data set on Jurkat cells (setting [2]), 95.3%.

On to `CC(C)(C)[C@]1(O)C[C@@H]2OC(=O)C[C@@]23C(=O)O[C@@H]2N(C[C@H]4CCCO4)C(=O)[C@H](OC(=O)c4ccccc4)[C@]213` [P-5, (3aS,5aS,8R,8aS,9R,10aS)-9-(tert-butyl)-9-hydroxy-2,4,7-trioxo-6-(((R)-tetrahydrofuran-2-yl)methyl) octahydro-4H,9H-furo [3″,2″:2′,3′]cyclopenta [1′,2′:3,4]furo[2,3-b]pyrrol-8-yl benzoate], for which the viability at 50 µM was found to be 98.7% in the data set on A549 cells (A549 cells, 50 uM, 48 h, CCK-8); 87.2% in data set [1] (A549, 48 h); 75.7% in the data set with Jurkat cells (setting [2]).

Turning to `CC(C)(C)[C@]1(O)C[C@@H]2OC(=O)C[C@@]23C(=O)O[C@@H]2N(CC4CCC4)C(=O)[C@H](OC(=O)c4ccccc4)[C@]213` [DW184, (3aS,5aS,8R,8aS,9R,10aS)-9-(tert-butyl)-6-(cyclobutylmethyl)-9-hydroxy-2,4,7-trioxooctahydro-4H,9H-furo [3″,2″:2′,3′]cyclopenta [1′,2′:3,4]furo [2,3-b]pyrrol-8-yl benzoate], the viability at 50 µM is 93.5% in the data set with A549 cells (A549 cells, 50 uM, 48 h, CCK-8); 81.1% in data set [1] (A549, 48 h); 68.7% in the data set with Jurkat cells (setting [2]).
